Test system: Arabidopsis thaliana L. wild strain (Col-0)
Settings: 10 mM aqueous acetic acid applied to soil in pot for 9 days; compared to plant without treatment and plant treated with 0.5 mM acetic acid; FIG. 19
Method: hda6 mutant strain (axe 1-5 or sil1) and a parent strain or wild strain thereof were grown in pots at 22° C. under the conditions of 16 hours in the light and 8 hours in the dark for 3 weeks. Thereafter, water supply was terminated and the cultivation was continued at 22° C. and a humidity of 40% under the conditions of 16 hours in the light and 8 hours in the dark for about 2 weeks. In this manner, drought stress was gently given to the strains. After water was supplied again, the strains were grown at 22° C. under the conditions of 16 hours in the light and 8 hours in the dark for 5 days. The number of plants which recovered the growth was counted to determine a survival rate. The experiment was repeated three times using 40 plants per strain per experiment to calculate an average and standard deviation for the survival rate.

## CC(=O)O [acetic acid]
  drought-stress resistance (survival after drought-stress resistance test): remarkably strong drought-stress resistance

Source: US9258954B2, “Plant having enhanced resistance to environmental stress” (RIKEN, priority 2011, dated 2016)
